# In PMC7216583 (Parasites & Vectors, 2020):
# Structures can show the parent of a compound that is named as a salt. Where two headings read alike, the source gives them in different places.
# Experiments:
# [1] = tested on: Toxoplasma gondii RH-2F tachyzoites; assay: microbe, parasite or virus in culture; conditions: 72 h
# [2] = target: 5-HT1D; set-up: method as in S-inhibitor catalog; conditions: vendor brief description; ref S-inhibitor catalog; cited from earlier work
# [3] = target: Aβ40 production (γ-secretase); set-up: method as in S-inhibitor catalog; conditions: in human SH-SY5Y cells; vendor brief description; ref S-inhibitor catalog; read-out: IC50, reduction of Aβ40 production; cited from earlier work
# [4] = tested on: PI3K; set-up: method as in S-inhibitor catalog; conditions: vendor brief description; ref S-inhibitor catalog; cited from earlier work
# [5] = tested on: DNA-PK; set-up: method as in S-inhibitor catalog; conditions: vendor brief description; ref S-inhibitor catalog; cited from earlier work
# [6] = tested on: mTORC1; set-up: method as in S-inhibitor catalog; conditions: vendor brief description; ref S-inhibitor catalog; cited from earlier work
# [7] = tested on: mTORC2; set-up: method as in S-inhibitor catalog; conditions: vendor brief description; ref S-inhibitor catalog; cited from earlier work
# [8] = tested on: Her-2 degradation; set-up: method as in S-inhibitor catalog; conditions: vendor brief description; ref S-inhibitor catalog; cited from earlier work
# [9] = target: HSP90; set-up: method as in S-inhibitor catalog; conditions: vendor brief description; ref S-inhibitor catalog; cited from earlier work
# [10] = tested on: p110δ; set-up: method as in S-inhibitor; conditions: ref S-inhibitor; cited from earlier work
# [11] = tested on: p110γ; set-up: method as in S-inhibitor; conditions: ref S-inhibitor; cited from earlier work
# [12] = tested on: p110β; set-up: method as in S-inhibitor; conditions: ref S-inhibitor; cited from earlier work
# [13] = tested on: p110α; set-up: method as in S-inhibitor; conditions: ref S-inhibitor; cited from earlier work
# [14] = tested on: α7 nAChR; set-up: method as in S-inhibitor catalog; conditions: in α7*-expressing SH-EP1 cells; vendor brief description; ref S-inhibitor catalog; read-out: EC50, α7 nAChR positive allosteric modulation; cited from earlier work
# [15] = tested on: bFGF; set-up: method as in S-inhibitor catalog; conditions: vendor brief description; ref S-inhibitor catalog; cited from earlier work
# [16] = tested on: VEGF-A; set-up: method as in S-inhibitor catalog; conditions: vendor brief description; ref S-inhibitor catalog; cited from earlier work
# [17] = tested on: Syk; set-up: method as in S-inhibitor catalog; conditions: vendor brief description; ref S-inhibitor catalog; cited from earlier work
# [18] = tested on: GPR40; set-up: method as in S-inhibitor catalog; conditions: vendor brief description; ref S-inhibitor catalog; read-out: EC50, GPR40 agonist; cited from earlier work
# [19] = tested on: c-Kit; set-up: method as in S-inhibitor catalog; conditions: vendor brief description; ref S-inhibitor catalog; cited from earlier work
# [20] = tested on: VEGFR3; set-up: method as in S-inhibitor catalog; conditions: vendor brief description; ref S-inhibitor catalog; cited from earlier work
# [21] = tested on: PDGFRβ; set-up: method as in S-inhibitor catalog; conditions: vendor brief description; ref S-inhibitor catalog; cited from earlier work
# [22] = tested on: VEGFR2; set-up: method as in S-inhibitor catalog; conditions: vendor brief description; ref S-inhibitor catalog; cited from earlier work
# [23] = tested on: AVP-induced platelet aggregation; set-up: method as in S-inhibitor catalog; conditions: vendor brief description; ref S-inhibitor catalog; read-out: IC50, inhibition of AVP-induced platelet aggregation; cited from earlier work
# [24] = tested on: FAAH; set-up: method as in S-inhibitor catalog; conditions: vendor brief description; ref S-inhibitor catalog; cited from earlier work
# [25] = target: 5-HT Receptor; set-up: method as in S-inhibitor catalog; conditions: vendor brief description; ref S-inhibitor catalog; cited from earlier work
# [26] = tested on: Bcr/Abl; set-up: method as in S-inhibitor catalog; conditions: vendor brief description; ref S-inhibitor catalog; cited from earlier work
# [27] = read-out: Parasite inhibition (%) mean, preliminary screen of compound library, mean
smiles,measurement,setting,value
CC1(C)C(=O)N(CCN2CCC(C(=O)c3ccc(F)cc3)CC2)c2ccccc21 [LY310762],inhibition of growth at 5 µM,[1]; [27],1.5%
same,Ki,[2],~200 nM
O=C(O)CC[C@H]1CC[C@@](c2cc(F)ccc2F)(S(=O)(=O)c2ccc(Cl)cc2)CC1 [MK-0752],inhibition of growth at 5 µM,[1]; [27],7.5%
same,IC50,[3],5 nM
O=c1cc(N2CCOCC2)oc2c(-c3cccc4c3sc3ccccc34)cccc12 [NU7441 (KU-57788)],inhibition of growth at 5 µM,[1]; [27],21.5%
same,IC50,[4],5000 nM
same,IC50,[5],14 nM
COc1cccc2cc(-c3nc([C@H]4CC[C@H](C(=O)O)CC4)n4ncnc(N)c34)[nH]c12 [OSI-027],IC50,[6],22 nM
same,inhibition of growth at 5 µM,[1]; [27],31%
same,IC50,[7],65 nM
CC1(C)CC(=O)c2c(C(F)(F)F)nn(-c3ccc(C(N)=O)c(N[C@H]4CC[C@H](OC(=O)CN)CC4)c3)c2C1 [PF-04929113 (SNX-5422)],inhibition of growth at 5 µM,[1]; [27],4.6%
same,IC50,[8],37 nM
same,Kd,[9],41 nM
Cc1ccccc1-n1c(Cn2ncc3c(N)ncnc32)nc2cccc(C)c2c1=O [PIK-293],inhibition of growth at 5 µM,"[1]; read-out: Parasite inhibition (%) mean, preliminary screen, mean",1.1%
same,IC50,[10],240 nM
same,IC50,[11],10000 nM
same,IC50,[12],25000 nM
same,IC50,[13],100000 nM
COc1cc(OC)c(NC(=O)Nc2cc(C)on2)cc1Cl [PNU-120596],inhibition of growth at 5 µM,[1]; [27],-38.8%
same,EC50,[14],216 nM
COc1ccc(COc2cc3oc(=O)c4cc(C(C)O)ccc4c3cc2OC)cc1 (stereo not shown) [Palomid 529],IC50,[15],30 nM
same,inhibition of growth at 5 µM,[1]; [27],-14.6%
same,IC50,[16],10 nM
COc1cc(Nc2ncc(F)c(Nc3ccc4c(n3)N(COP(=O)(O)O)C(=O)C(C)(C)O4)n2)cc(OC)c1OC [R788 (Fostamatinib)],inhibition of growth at 5 µM,[1]; [27],27.4%
Cc1cc(OCCCS(C)(=O)=O)cc(C)c1-c1cccc(COc2ccc3c(c2)OC[C@H]3CC(=O)O)c1 [TAK-875],inhibition of growth at 5 µM,[1]; [27],-10.4%
CNC(=O)c1cc(COc2nnc(Nc3ccc(Cl)cc3)c3ccoc23)ccn1 [Telatinib (BAY 57-9352)],inhibition of growth at 5 µM,[1]; [27],-15.6%
same,IC50,[19],1 nM
same,IC50,[20],4 nM
same,IC50,[21],15 nM
same,IC50,[22],6 nM
Cc1ccccc1C(=O)Nc1ccc(C(=O)N2CCCC(O)c3cc(Cl)ccc32)c(C)c1 (stereo not shown) [Tolvaptan (OPC-41061)],inhibition of growth at 5 µM,[1]; [27],-4.3%
same,IC50,[23],1280 nM
NC(=O)c1cccc(-c2cccc(OC(=O)NC3CCCCC3)c2)c1 [URB597],inhibition of growth at 5 µM,[1]; [27],2.1%
same,IC50,[24],4.6 nM
COc1ccccc1N1CCN(CCN(C(=O)C2CCCCC2)c2ccccn2)CC1 [WAY-100635 HCl],inhibition of growth at 5 µM,[1]; [27],-0.7%
same,IC50,[25],0.95 nM
CCC[C@H](NC(=O)/C(C#N)=C/c1cccc(Br)n1)c1ccccc1 [WP1130],inhibition of growth at 5 µM,[1]; [27],1.7%
same,IC50,[26],1800 nM
